Numbers after ± are expanded uncertainties.

For the series the following is noted: Ring tensiometer.

`CCC[n+]1cccc(C)c1.O=S(=O)([N-]S(=O)(=O)C(F)(F)F)C(F)(F)F`: the surface tension liquid-gas is listed as 36 ± 0.53 mN/m (293.15 K); 35.53 ± 0.52 mN/m (303.15 K); 35.1 ± 0.52 mN/m (313.15 K); 34.53 ± 0.51 mN/m (323.15 K); 34.05 ± 0.5 mN/m (333.15 K); 33.55 ± 0.5 mN/m (343.15 K).

For the compound `CCCCCCCCCCCCCC[P+](CCCCCC)(CCCCCC)CCCCCC.O=S(=O)([N-]S(=O)(=O)C(F)(F)F)C(F)(F)F`, the surface tension liquid-gas was 30.75 ± 0.46 mN/m (293.15 K); 30.25 ± 0.46 mN/m (303.15 K); 29.52 ± 0.45 mN/m (313.15 K); 28.87 ± 0.44 mN/m (323.15 K); 28.21 ± 0.43 mN/m (333.15 K); 27.59 ± 0.42 mN/m (343.15 K).

`CCCCn1cc[n+](C)c1C.O=S(=O)([N-]S(=O)(=O)C(F)(F)F)C(F)(F)F`: the surface tension liquid-gas reads like this: (293.15 K) 37.4 ± 0.55 mN/m; (303.15 K) 35.54 ± 0.52 mN/m; (313.15 K) 33.83 ± 0.5 mN/m; (323.15 K) 32.2 ± 0.48 mN/m; (333.15 K) 30.49 ± 0.46 mN/m; (343.15 K) 28.74 ± 0.44 mN/m.

`CCC[N+]1(C)CCCC1.O=S(=O)([N-]S(=O)(=O)C(F)(F)F)C(F)(F)F`: the surface tension liquid-gas came out at 32.54 ± 0.48 mN/m (293.15 K); 31.95 ± 0.48 mN/m (303.15 K); 31.5 ± 0.47 mN/m (313.15 K); 31 ± 0.46 mN/m (323.15 K); 30.47 ± 0.46 mN/m (333.15 K); 29.97 ± 0.45 mN/m (343.15 K).

Regarding `CCn1cc[n+](CC)c1.O=S(=O)([N-]S(=O)(=O)C(F)(F)F)C(F)(F)F` [1,3-diethylimidazolium bis[(trifluoromethyl)sulfonyl]imide], the surface tension liquid-gas is 35.76 ± 0.52 mN/m (293.15 K); 35.37 ± 0.52 mN/m (303.15 K); 34.94 ± 0.51 mN/m (313.15 K); 34.56 ± 0.51 mN/m (323.15 K); 34.15 ± 0.5 mN/m (333.15 K); 33.7 ± 0.5 mN/m (343.15 K).

`CCCC[N+]1(C)CCCC1.O=S(=O)([N-]S(=O)(=O)C(F)(F)F)C(F)(F)F`: the surface tension liquid-gas by setting is: (293.15 K) 34.93 ± 0.51 mN/m; (303.15 K) 34.35 ± 0.51 mN/m; (313.15 K) 33.65 ± 0.5 mN/m; (323.15 K) 33.17 ± 0.49 mN/m; (333.15 K) 32.61 ± 0.48 mN/m; (343.15 K) 31.96 ± 0.48 mN/m.

Source of the values: the NIST ThermoML archive (doi:10.1021/je100253m).
